Test [1] deals with T1, NA transporter (Rattus norvegicus, UniProt Q63380).
T1 construct: from tissue; host or cells: rat brain synaptosomes (P2 fraction) from hypothalamus
The test can be described thus: noradrenalin uptake inhibition in rat brain synaptosomes (hypothalamus), [3H]-NA. The test is classed as biochemical. The text has this: a) Method for Determining Noradrenalin and 5-HT Uptake Inhibition:
Synaptosomes from rat brain regions are freshly isolated for in vitro studies, as described in the publication “The isolation of nerve endings from brain” by E. G. Gray and V. P. Whittaker, J. Anatomy 96, pages 79-88, 1962. The corresponding literature description is hereby introduced as a reference and is deemed to be part of the disclosure.
The tissue (hypothalamus for the determination of noradrenalin uptake inhibition and medulla and pons for the determination of 5-HT uptake inhibition) is homogenised in ice-cooled 0.32 M sucrose (100 mg of tissue/1 mL) in a glass homogeniser with Teflon pestle using five complete up and down strokes at 840 revolutions/minute.
The homogenate is centrifuged at 4° C. for 10 minutes at 1000 g. After subsequent centrifugation at 17000 g for 55 minutes, the synaptosomes (P2 fraction) are obtained, which are resuspended in 0.32 M […] (0.5 mL/100 mg of original weight).
The particular uptake is measured in a 96-well microtitre plate. The volume is 250 μl and the incubation proceeds at room temperature (approx. 20-25° C.) under an O2 atmosphere.
The incubation time is 7.5 minutes for [^3H]-NA and 5 minutes for [^3H]-5-HT. The 96 samples are then filtered through a Unifilter GF/B® microtitre plate (Packard) and washed with 200 mL of incubated buffer using a “Brabdel MPXRI-96T Cell-Harvester”. The Unifilter GF/B plate is dried for 1 hour at 55° C. The plate is then sealed with a Back Seal® (Packard) and 35 μl of scintillation fluid are added per well (Ultima Gold®, Packard). After sealing with a top Seal® (Packard) and establishing an equilibrium (around 5 hours), radioactivity is determined in a “Trilux 1450 Microbeta” (Wallac).
The quantity of protein used in the above determination corresponds to the values known from the literature, as for example described in “Protein measurement with the folin phenol reagent”, Lowry et al., J. Biol. Chem., 193, 265-275, 1951.
A detailed description of the method may additionally be found in the literature, for example in M. Ch. Frink, H.-H. Hennies, W. Engelberger, M. Haurand and B. Wilffert (1996) Arzneim.-Forsch./Drug Res. 46 (III), 11, 1029-1036.

Test [2] addresses T2, 5-HT transporter (Rattus norvegicus, UniProt P31652).
T2 construct: from tissue; host or cells: rat brain synaptosomes (P2 fraction) from medulla and pons
The test can be described thus: 5-HT uptake inhibition in rat brain synaptosomes (medulla and pons), [3H]-5-HT. The format is biochemical. In short, it runs like this:
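Freshly isolated P2 synaptosomes taken from rat hypothalamus (NA) or medulla/pons (5-HT) were incubated at room temperature under O2 with [3H]-NA for 7.5 min or [3H]-5-HT for 5 min. Uptake was measured as filter-retained radioactivity by scintillation counting.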

T2 sequence (P31652 whole entry): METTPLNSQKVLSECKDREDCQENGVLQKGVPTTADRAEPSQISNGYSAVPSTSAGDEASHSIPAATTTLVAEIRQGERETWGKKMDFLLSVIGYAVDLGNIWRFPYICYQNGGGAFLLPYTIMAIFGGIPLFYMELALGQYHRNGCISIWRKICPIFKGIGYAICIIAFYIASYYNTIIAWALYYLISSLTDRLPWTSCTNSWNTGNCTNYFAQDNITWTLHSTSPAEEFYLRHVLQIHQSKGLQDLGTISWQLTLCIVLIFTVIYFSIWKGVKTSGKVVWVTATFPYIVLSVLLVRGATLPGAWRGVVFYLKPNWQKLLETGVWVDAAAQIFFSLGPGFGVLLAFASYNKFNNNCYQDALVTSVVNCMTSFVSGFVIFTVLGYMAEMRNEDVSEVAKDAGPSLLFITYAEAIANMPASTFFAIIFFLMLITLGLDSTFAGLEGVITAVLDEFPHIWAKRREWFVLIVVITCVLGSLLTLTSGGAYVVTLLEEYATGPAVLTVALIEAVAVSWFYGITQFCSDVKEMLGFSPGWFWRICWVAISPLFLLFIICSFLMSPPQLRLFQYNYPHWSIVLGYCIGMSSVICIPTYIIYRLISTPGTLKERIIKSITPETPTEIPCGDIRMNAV
T1 sequence (Q63380 1-617): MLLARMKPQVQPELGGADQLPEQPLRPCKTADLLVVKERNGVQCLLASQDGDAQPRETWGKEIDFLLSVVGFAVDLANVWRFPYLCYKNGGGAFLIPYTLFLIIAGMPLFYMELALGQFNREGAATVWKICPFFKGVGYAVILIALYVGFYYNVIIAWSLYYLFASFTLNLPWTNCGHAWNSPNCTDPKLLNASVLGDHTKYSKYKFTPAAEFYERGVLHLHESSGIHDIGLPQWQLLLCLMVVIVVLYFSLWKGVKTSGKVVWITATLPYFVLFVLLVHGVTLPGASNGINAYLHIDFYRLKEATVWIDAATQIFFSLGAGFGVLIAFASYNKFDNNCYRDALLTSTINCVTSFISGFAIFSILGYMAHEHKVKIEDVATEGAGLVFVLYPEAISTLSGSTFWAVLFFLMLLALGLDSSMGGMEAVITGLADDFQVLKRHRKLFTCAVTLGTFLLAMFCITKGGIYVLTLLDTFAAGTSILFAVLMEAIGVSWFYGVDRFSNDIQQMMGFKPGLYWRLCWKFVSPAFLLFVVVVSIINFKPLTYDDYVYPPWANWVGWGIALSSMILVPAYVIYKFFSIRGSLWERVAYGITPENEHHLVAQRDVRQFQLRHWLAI

With `O=C1OC2(CCN(C(=S)Nc3cc(Cl)ccc3Cl)CC2)CN1Cc1cccc(Br)c1` [Example 2, 3-(3-bromobenzyl)-2-oxo-1-oxa-3,8-diazaspiro[4.5]decane-8-carbothioic acid (2,5-dichlorophenyl)amide], the results for the inhibition at 10 µM in test [1] and in test [2] were 64% and 60%, respectively. Take `Cc1ccc(CN2CC3(CCN(C(=O)NCc4ccc(Cl)c(Cl)c4)CC3)OC2=O)cc1` [Example 36, 3-(4-methylbenzyl)-2-oxo-1-oxa-3,8-diazaspiro[4.5]decane-8-carboxylic acid 3,4-dichlorobenzylamide]: the inhibition (in general, the change of the read-out against control, counted positive when it falls) at 10 µM in test [1] stood at 60%; in test [2], 56%. On the same counts, the results for `O=C(Nc1cc(F)ccc1F)N1CCC2(CC1)CN(Cc1cccc(Br)c1)C(=O)O2` [Example 29, 3-(3-bromobenzyl)-2-oxo-1-oxa-3,8-diazaspiro[4.5]decane-8-carboxylic acid (2,5-difluorophenyl)amide] are 82% and 84%. Regarding `CC(=O)c1cccc(NC(=S)N2CCC3(CC2)CN(Cc2ccccc2F)C(=O)O3)c1` [Example 20, 3-(2-fluorobenzyl)-2-oxo-1-oxa-3,8-diazaspiro[4.5]decane-8-carbothioic acid (3-acetylphenyl)amide], at 10 µM the inhibition in test [1] was 48%.

On to `COc1ccc(-c2noc(CN3CCC4(CC3)CN(Cc3ccc(F)c(F)c3)C(=O)O4)n2)cc1` [Example 77, 3-(3,4-difluorobenzyl)-8-[3-(4-methoxyphenyl)-[1,2,4]oxadiazol-5-ylmethyl]-1-oxa-3,8-diazaspiro[4.5]decan-2-one], for which the inhibition at 10 µM in test [1] stood at 64%; in test [2] it was 50%. On the same counts, the results for `CCCc1ccc(C(=O)N2CCC3(CC2)CN(Cc2cccc(Br)c2)C(=O)O3)cc1` [Example 148, 3-(3-bromobenzyl)-8-(4-propylbenzoyl)-1-oxa-3,8-diazaspiro[4.5]decan-2-one] are 75% and 73%. For `COc1cc(OC)cc(C(=O)N2CCC3(CC2)CN(Cc2cccc(Br)c2)C(=O)O3)c1` [Example 137, 3-(3-bromobenzyl)-8-(3,5-dimethoxybenzoyl)-1-oxa-3,8-diazaspiro[4.5]decan-2-one] the same measures were 84% and 74%.

Compound `Cc1ccc(NC(=O)N2CCC3(CC2)CN(Cc2ccc(F)c(F)c2)C(=O)O3)cc1[N+](=O)[O-]` [Example 34, 3-(3,4-difluorobenzyl)-2-oxo-1-oxa-3,8-diazaspiro[4.5]decane-8-carboxylic acid (4-methyl-3-nitrophenyl)amide] gave an inhibition at 10 µM in test [1] of 41%.

With `O=C(NCc1ccc(Cl)c(Cl)c1)N1CCC2(CC1)CN(Cc1cccc(Br)c1)C(=O)O2` [Example 42, 3-(3-bromobenzyl)-2-oxo-1-oxa-3,8-diazaspiro[4.5]decane-8-carboxylic acid 3,4-dichlorobenzylamide], the inhibition at 10 µM in test [1] worked out at 83%; in test [2] it was 60%. On the same counts, the results for `COc1cccc(NC(=O)N2CCC3(CC2)CN(Cc2ccccc2-c2ccccc2)C(=O)O3)c1` [Example 62, 3-biphenyl-2-ylmethyl-2-oxo-1-oxa-3,8-diazaspiro[4.5]decane-8-carboxylic acid (3-methoxyphenyl)amide] are 67% and 57%.

As to `O=C1OC2(CCN(C(=O)c3ccc([N+](=O)[O-])cc3)CC2)CN1Cc1cccc(Br)c1` [Example 109, 3-(3-bromobenzyl)-8-(4-nitrobenzoyl)-1-oxa-3,8-diazaspiro[4.5]decan-2-one], the inhibition at 10 µM is 78% in test [1] and 81% in test [2]. On to `CCOc1ccc(NC(=O)N2CCC3(CC2)CN(Cc2ccccc2F)C(=O)O3)cc1` [Example 24, 3-(2-fluorobenzyl)-2-oxo-1-oxa-3,8-diazaspiro[4.5]decane-8-carboxylic acid (4-ethoxyphenyl)amide], for which the inhibition at 10 µM in test [1] was 58%. `N#Cc1cccc(NC(=O)N2CCC3(CC2)CN(Cc2ccccc2)C(=O)O3)c1` [Example 33, 3-benzyl-2-oxo-1-oxa-3,8-diazaspiro[4.5]decane-8-carboxylic acid (3-cyanophenyl)amide]: the inhibition at 10 µM in test [1] came to 93%; in test [2], 59%. In the case of `CCOC(=O)CC(C)NC(=S)N1CCC2(CC1)CN(Cc1cccc(Br)c1)C(=O)O2` (stereo not drawn) [Example 9, 3-{[3-(3-bromobenzyl)-2-oxo-1-oxa-3,8-diazaspiro[4.5]decane-8-carbothioyl]amino}butanoic acid ethyl ester], in test [1], 10 µM produced 81% inhibition.

`COCCNC(=S)N1CCC2(CC1)CN(Cc1cccc(Br)c1)C(=O)O2` [Example 5, 3-(3-bromobenzyl)-2-oxo-1-oxa-3,8-diazaspiro[4.5]decane-8-carbothioic acid (2-methoxyethyl)amide]: in test [1], testing at 10 µM gave an inhibition of 70%. Regarding `O=C1OC2(CCN(C(=S)Nc3ccccc3)CC2)CN1Cc1ccccc1-c1ccccc1` [Example 18, 3-biphenyl-2-ylmethyl-2-oxo-1-oxa-3,8-diazaspiro[4.5]decan-8-carbothioic acid phenylamide], testing at 10 µM in test [1] gave an inhibition of 55%. Same read-out and setting: next, `O=C(NCCc1ccccc1)N1CCC2(CC1)CN(Cc1ccccc1C(F)(F)F)C(=O)O2` [Example 49, 2-oxo-3-(2-trifluoromethylbenzyl)-1-oxa-3,8-diazaspiro[4.5]decane-8-carboxylic acid phenethylamide]: 48%; `Cc1ccc(CN2CC3(CCN(CC(=O)Nc4ccc(S(=O)(=O)Nc5cc(Cl)cc(Cl)c5)cc4)CC3)OC2=O)cc1` [Example 75, N-[4-(3,5-dichlorophenylsulfamoyl)phenyl]-2-[3-(4-methylbenzyl)-2-oxo-1-oxa-3,8-diazaspiro[4.5]dec-8-yl]acetamide]: 67%. As to `O=C(Nc1cccc(F)c1)N1CCC2(CC1)CN(Cc1ccccc1)C(=O)O2` [Example 60, 3-benzyl-2-oxo-1-oxa-3,8-diazaspiro[4.5]decane-8-carboxylic acid (3-fluorophenyl)amide], the inhibition at 10 µM in test [1] worked out at 58%. In test [1], `O=C(Nc1ccc(Cl)c(C(F)(F)F)c1)N1CCC2(CC1)CN(Cc1ccccc1)C(=O)O2` [Example 37, 3-benzyl-2-oxo-1-oxa-3,8-diazaspiro[4.5]decane-8-carboxylic acid (4-chloro-3-trifluoromethylphenyl)amide] yielded an inhibition at 10 µM of 47%. In test [2], `Cc1cc(C)cc(CN2CC3(CCN(C(=O)c4cc(C)on4)CC3)OC2=O)c1` [Example 122, 3-(3,5-dimethylbenzyl)-8-(5-methylisoxazole-3-carbonyl)-1-oxa-3,8-diazaspiro[4.5]decan-2-one] displayed an inhibition at 10 µM of 68%. Compound `Cc1ccc(NC(=O)N2CCC3(CC2)CN(Cc2ccc(SC(F)(F)F)cc2)C(=O)O3)cc1[N+](=O)[O-]` [Example 40, 2-oxo-3-(4-trifluoromethylsulfanylbenzyl)-1-oxa-3,8-diazaspiro[4.5]decane-8-carboxylic acid (4-methyl-3-nitrophenyl)amide] displayed an inhibition at 10 µM in test [2] of 54%. `CCSc1ncccc1C(=O)N1CCC2(CC1)CN(Cc1cccc(Br)c1)C(=O)O2` [Example 121, 3-(3-bromobenzyl)-8-(2-ethylsulfanylpyridine-3-carbonyl)-1-oxa-3,8-diazaspiro[4.5]decan-2-one] registered an inhibition at 10 µM in test [2] of 77%.

`Cc1cc(C)cc(CN2CC3(CCN(C(=O)c4ccc(F)c(Cl)c4)CC3)OC2=O)c1` [Example 131, 8-(3-chloro-4-fluorobenzoyl)-3-(3,5-dimethylbenzyl)-1-oxa-3,8-diazaspiro[4.5]decan-2-one] had an inhibition at 10 µM in test [2] of 63%. In test [2], `Cc1cc(C)cc(CN2CC3(CCN(C(=O)c4ccc5nonc5c4)CC3)OC2=O)c1` [Example 117, 8-(benzo[1,2,5]oxadiazole-5-carbonyl)-3-(3,5-dimethylbenzyl)-1-oxa-3,8-diazaspiro[4.5]decan-2-one] returned an inhibition at 10 µM of 73%. In the case of `CCOC(=O)c1ccc(NC(=O)N2CCC3(CC2)CN(Cc2ccc4ccccc4c2)C(=O)O3)cc1` [Example 30, 4-[(3-naphthalen-2-ylmethyl-2-oxo-1-oxa-3,8-diazaspiro[4.5]decane-8-carbonyl)amino]benzoic acid ethyl ester], the inhibition at 10 µM in test [2] stood at 65%.

Values taken from patent US8153795B2, “Substituted 1-oxa-3,8-diazaspiro[4.5]-decan-2-one-compounds and the use thereof for producing drugs” (Gruenenthal GmbH, priority 2005, dated 2012).
